TGI and GI50 data for 19 compounds are collected here from PubChem BioAssay (NCI).

“And” between values parts separate entries of the source, which are not always exact repeats. Equal values may be shown once.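 Results reflect a 48-hour exposure of cells in 96-well plates to compound at five concentrations. Here, GI50 denotes the concentration required for 50% inhibition of growth. TGI: total growth inhibition.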

Holding throughout (assay): DTP human tumour cell line panel, 48 h
Test [1] relates to A498 renal.
Test [2] relates to COLO 205 colon.
The test system of test [3] is HL-60(TB) leukemia.
Test [4] concerns IGROV1 ovarian.
Test [5] deals with KM12 colon.
Test [6] concerns M14 melanoma.
The test system of test [7] is MALME-3M melanoma.
Test [8] has as its system OVCAR-4 ovarian.
For test [9], the system named is SK-MEL-5 melanoma.
Test [10] deals with SNB-75 CNS.

The TGI is the concentration giving total growth inhibition. Lower therefore signals greater sensitivity of the cells. Usually GI50 stands for the concentration at which growth is held to half of that of the control.

For `O=C1C(Cl)=C(Oc2ccc([N+](=O)[O-])cc2)C(=O)c2c(O)ccc(O)c21`, the TGI in [1] was above 100 µM; in [2], 42.3 µM; in test [3], 19.2 µM; in test [4], above 100 µM; in [5], above 100 µM; in test [6], above 69.2 µM. Besides, the concentration for total growth inhibition (TGI) is 40.1 µM in [7], above 100 µM in test [8], above 100 µM in [9] and above 100 µM in test [10].

As for `S=c1[nH]c(=S)c2sc(=S)n(-c3ccccc3)c2[nH]1`, the TGI in [1], in [2], in test [3], in test [4], in [5] and in test [6] was above 100 µM each time. The TGI in [7], in test [8], in test [9] and in [10] was above 100 µM in each case.

For `CCN(CC)CCOc1ccc(Nc2ncc3cc(-c4ccc(O)cc4)c(=O)n(C)c3n2)cc1`, the GI50 in test [1] was 1500 nM; in test [2] it was 1590 nM; in test [3], 14.6 µM; in test [4], 0.0803 µM; in test [5], 2440 nM; in [6] it was 1270 nM. Further, the GI50 in test [7] was 0.734 µM; in test [8], 16.7 µM; in test [9] it was 14800 nM; in test [10], 40.6 nM. In addition, the concentration for total growth inhibition (TGI) in test [1] came out at 13.4 µM; in [2], 17.2 µM; in [3] it was 40.3 µM; in test [4], 15.9 µM; in test [5], 17.1 µM; in test [6] it was 7.12 µM. The TGI amounted to 2.44 µM in test [7], 33.7 µM in test [8], 31 µM in [9] and 13.7 µM in test [10].

As for `C/C=C(\C)C(=O)N[C@H]1[C@@H](OC(C)=O)C[C@]2(C)C3CC[C@@]4(C)C(CC[C@@H]4C(C)N(C)C)C3CCC2[C@H]1O` (stereo not given in full), the GI50 in test [1] is 2730 nM; in test [2] it was 2150 nM; in [3], 4.53 µM; in test [4] it was 5.88 µM; in test [5], 4350 nM; in test [6], 2020 nM. In addition, the GI50 in test [7] is 2.03 µM; in test [8] it was 5.29 µM; in test [9], 1600 nM; in test [10], 5860 nM. In addition, the total growth inhibition concentration (TGI) turned out to be 20 µM in test [1]; 5.91 µM in test [2]; 13.6 µM in test [3]; 16.8 µM in test [4]; 15.5 µM in [5]; 3.72 µM in test [6]. Besides, the TGI in [7] stood at 6.43 µM; in test [8] it was 31.5 µM; in test [9], 3.77 µM; in test [10], 20.8 µM.

On to `N#CCc1ccc(C(C#N)/C(CCCC(=O)Nc2cccc([N+](=O)[O-])c2)=N\NC(=O)NN)cc1` (stereo not given), for which the total growth inhibition concentration (TGI) in [1], in test [2], in test [3], in [4], in [5] and in test [6] was above 100 µM in each case. Besides, the TGI in test [7], in [8], in [9] and in [10] was above 100 µM throughout.

With `C=C1C[C@@H]2C/C=C/C(=O)C/C(C)=C\C=C\C(=O)O[C@H](C=O)C/C(C)=C/[C@H](C1)O2`, the GI50 in [1] is above 28500 nM; in test [2], 885 nM; in test [3], 0.243 µM; in test [4], 1.16 µM; in test [5], 1170 nM; in test [6], 281 nM. Also, the GI50 is 13.6 µM in test [7], 4.65 µM in [8], 2620 nM in test [9] and 294 nM in test [10]. In addition, the TGI in [1] is above 55.6 µM; in test [2] it was 17.7 µM; in [3] it was 0.781 µM; in test [4], 21.7 µM; in [5], 12.2 µM; in [6], 0.738 µM. Also, the TGI stood at 38.4 µM in test [7], 70 µM in [8], 16.6 µM in [9] and 1.96 µM in test [10].

Consider `NCCCN(CCCN)CCCNCc1c2ccccc2c(CNCCCN(CCCN)CCCN)c2ccccc12`, for which the TGI in [1] worked out at 60.2 µM; in [2], 22.5 µM; in test [3], 38 µM; in [4] it was 28.1 µM; in test [5], 14 µM; in test [6], 28.5 µM. Further, the TGI in test [7] turned out to be 22.4 µM; in test [8], 34 µM; in test [9], 17.9 µM; in test [10], 34.3 µM.

For the compound `O=C1/C(=C/c2ccc(O)c([N+](=O)[O-])c2)CCC/C1=C\c1ccc(O)c([N+](=O)[O-])c1`, the TGI in test [1] was 13.1 µM; in [2], 31.9 µM and 40.6 µM; in [3], 50 µM and 45.1 µM; in test [4], 17 µM and 28.5 µM; in test [5] it was 18.4 µM and 9.42 µM; in [6], 31.8 µM and 29.7 µM. The TGI in [7] was 26.3 µM and 26.2 µM; in [8], 50 µM and > 100 µM; in test [9] it was 17.4 µM and 31.5 µM; in test [10] it was 6.65 µM. Also, the GI50 in [2] is 20800 nM; in test [3], 16.7 µM; in test [4], 15.2 µM; in [5], 1970 nM; in test [6] it was 14600 nM; in test [7], 12.3 µM. Further, the values for the GI50 in test [8] and in test [9] were 4.34 µM and 14700 nM, respectively.

As to `CCCCCNC(=O)[C@@H]1CCCN2C(=O)CC[C@H](NC(=O)[C@H](Cc3ccc(OP(=O)(O)O)cc3)NC(C)=O)C(=O)N12`, the GI50 is above 25000 nM in [1]; above 25000 nM in test [2]; above 25 µM in [3]; above 25 µM in [4]; above 25000 nM in [5]; above 25000 nM in [6]. Besides, the GI50 in [7] was above 25 µM; in test [8], above 25 µM; in test [9], above 25000 nM; in test [10], above 25000 nM. The TGI in [1], in test [2], in [3], in test [4], in test [5] and in test [6] was above 25 µM each time. For the same compound, the TGI in [7], in [8], in [9] and in test [10] was above 25 µM each time.

Take `CN(C)NC1=NS(=O)(=O)c2cc3c(cc2S1)N(N(C)C)C(=O)c1cc2c(cc1N(N(C)C)C3=O)SC(NN(C)C)=NS2(=O)=O`: the TGI in test [1], in test [2], in test [3], in test [4], in test [5] and in test [6] was above 10 µM in each case. Moreover, the TGI in [7], in [8], in [9] and in test [10] was above 10 µM throughout.

As to `CC(=O)OCSc1ncnc2c1ncn2CN1CCOCC1`, the TGI was above 100 µM in test [1]; 53.1 µM in test [2]; above 100 µM in test [3]; above 100 µM in [4]; above 100 µM in test [5]; above 100 µM in test [6]. For the same compound, the TGI in test [7], in test [8], in test [9] and in test [10] was above 100 µM each time.

In the case of `OCC(O)C(O)C(O)C1SC(c2ccccc2)=NN1c1ccccc1` (stereo not given), the concentration for total growth inhibition (TGI) in test [1], in test [2], in test [3], in test [4], in test [5] and in [6] was above 100 µM in each case. The TGI in test [7] is above 100 µM; in test [8], above 100 µM; in test [9], above 100 µM; in test [10], 35.5 µM.

In the case of `O=C(/C=C/C=C/c1ccccc1)CCc1ccccc1`, the TGI in test [1] was above 100 µM; in [2], above 100 µM; in test [3], 53 µM; in test [4] it was above 100 µM; in [5], above 100 µM; in [6], above 100 µM. The TGI in test [7], in [8], in [9] and in [10] was above 100 µM throughout.

As for `Fc1ccc(Oc2nccc(-c3c(-c4ccc(F)cc4)ncn3C3CCNCC3)n2)cc1`, the GI50 in test [1] was above 25000 nM; in [2], above 25000 nM; in test [3], above 25 µM; in test [4] it was 19.2 µM; in test [5], above 25000 nM; in test [6] it was above 25000 nM. The GI50 is above 25 µM in test [7], above 25 µM in test [8], above 25000 nM in [9] and above 25000 nM in [10]. Moreover, the TGI in [1], in test [2], in test [3], in test [4], in [5] and in test [6] was above 25 µM in each case. The total growth inhibition concentration (TGI) in [7], in test [8], in test [9] and in test [10] was above 25 µM each time.

Turning to `CCOC(=O)CCCn1c(SC)nc2cc(-c3ccco3)[nH]c2c1=O`, the GI50 in test [1] is 27400 nM; in test [2], above 100000 nM; in test [3], above 100 µM; in test [4], 19.6 µM; in [5] it was above 100000 nM; in [6], above 100000 nM. For the same compound, the GI50 in test [7] is above 100 µM; in test [8] it was above 100 µM; in test [9], above 100000 nM; in [10] it was 4550 nM. Besides, the TGI was 76 µM in test [1]; above 100 µM in test [2]; above 100 µM in test [3]; 76.6 µM in test [4]; above 100 µM in test [5]; above 100 µM in [6]. Besides, the TGI in test [7] is above 100 µM; in test [8], above 100 µM; in test [9] it was above 100 µM; in test [10], 17.7 µM.

In the case of `CC(C)=CC(=O)Oc1ccc([N+](=O)[O-])cc1`, the TGI was above 100 µM in test [1]; above 100 µM in test [2]; 59.5 µM in test [3]; above 100 µM in [4]; above 100 µM in test [5]; above 100 µM in test [6]. The TGI in [7], in test [8], in [9] and in [10] was above 100 µM in each case.

For the compound `O=C(NC1CC1)c1ccc(-c2nc3ccc4[nH]ncc4c3c3c2CCCC3)cc1`, the GI50 in test [1] was 1030 nM; in test [2], 1800 nM; in test [3] it was 1.59 µM; in [4] it was 0.989 µM; in test [5], 1510 nM; in test [6], 2330 nM. Moreover, the GI50 in test [7] was 3.46 µM; in test [8] it was 4.62 µM; in test [9], 2670 nM; in [10], 1540 nM. The TGI is 5.01 µM in test [1]; 10.4 µM in [2]; 6.99 µM in [3]; above 50 µM in [4]; 9.65 µM in [5]; 10.4 µM in test [6]. Further, the TGI was 11.6 µM in test [7], above 50 µM in test [8], 9.83 µM in test [9] and 4.87 µM in test [10].

For `c1ccc(C(=NNc2nc3ccccc3o2)c2ccccn2)nc1`, the GI50 was 117 nM in test [1]; 19.4 nM in test [2]; 0.0323 µM in [3]; 0.0437 µM in [4]; 68.1 nM in test [5]; 41.8 nM in [6]. Besides, the GI50 in test [7] is 0.134 µM; in test [8], 0.0128 µM; in [9] it was 163 nM; in test [10], 397 nM. In addition, the TGI in [1] was 0.834 µM and 6.5 µM; in test [2], 14.4 µM; in [3] it was 0.289 µM and 1.14 µM; in [4], 11.7 µM; in [5], 17.8 µM and 15 µM; in test [9], 1.18 µM and 0.491 µM. Besides, the TGI in [10] was 24.1 µM.

Regarding `FC(F)(F)c1cccc(COCCN2CCN(Cc3cccc(C(F)(F)F)c3)CC2)c1`, the TGI was 28.8 µM in test [1]; 42.3 µM in test [2]; above 100 µM in [3]; 30.3 µM in test [4]; 35.8 µM in test [5]; 94.6 µM in test [6]. Further, the TGI is 22.5 µM in test [7], 32.1 µM in test [8], 29.4 µM in test [9] and 26.3 µM in [10].
